Assay results as given in ChEMBL document CHEMBL1153372, “A selective matrix metalloprotease 12 inhibitor for potential treatment of chronic obstructive pulmonary disease (COPD): discovery of (S)-2-(8-(methoxycarbonylamino)dibenzo[b,d]furan-3-sulfonamido)-3-methylbutanoic acid (MMP408)” (J Med Chem, 2009).
pIC50: −log10 of the molar value.

Experiments:
[1] = molecular target: Collagenase 3 (Homo sapiens, UniProt P45452); test: Inhibition of human recombinant MMP13 expressed in Escherichia coli
[2] = Cmax in C57BL/6 mouse at 30 mg/kg, po; type: ADME, organism-based; design: dose 30 mg/kg, route oral; conditions: in vivo
[3] = AUC in C57BL/6 mouse at 30 mg/kg, po; type: ADME, organism-based; design: dose 30 mg/kg, route oral; conditions: plasma
[4] = Oral bioavailability in C57BL/6 mouse at 30 mg/kg; type: ADME, organism-based; conditions: in vivo
[5] = Volume of distribution at steady state in C57BL/6 mouse at 2 mg/kg, iv; type: ADME, organism-based; design: dose 2 mg/kg, route intravenous; conditions: in vivo, read-out: Vdss
[6] = Clearance in C57BL/6 mouse at 2 mg/kg, iv; type: ADME, organism-based; design: dose 2 mg/kg, route intravenous; conditions: in vivo
[7] = Half life in C57BL/6 mouse at 30 mg/kg, po; type: ADME, organism-based; design: dose 30 mg/kg, route oral; conditions: in vivo

SMILES	pIC50 [1]	other results
CC(C)[C@@H](NS(=O)(=O)c1ccc2oc3ccccc3c2c1)C(=O)O	5.60	–
COC(=O)Nc1cc2oc3ccc(S(=O)(=O)N[C@@H](C(=O)O)C(C)C)cc3c2cc1Br	4.59	–
CC(C)[C@@H](NS(=O)(=O)c1ccc2oc3cc(NS(=O)(=O)c4ccccc4)ccc3c2c1)C(=O)O	5.22	–
Cc1noc(C)c1S(=O)(=O)Nc1ccc2c(c1)oc1ccc(S(=O)(=O)N[C@@H](C(=O)O)C(C)C)cc12	4.47	–
COC(=O)Nc1ccc2c(c1)oc1ccc(S(=O)(=O)N[C@@H](C(=O)O)C(C)C)cc12	6.30	Cmax [2]: 10600 ng/mL; AUC [3]: 21700 ng·h/mL; bioavailability [4]: 36%; Vd [5]: 1.6 L/kg; clearance [6]: 8.3 mL/min/kg; half-life [7]: 162 min
CC(C)OC(=O)Nc1ccc2c(c1)oc1ccc(S(=O)(=O)N[C@@H](C(=O)O)C(C)C)cc12	6.30	–
CC(C)[C@@H](NS(=O)(=O)c1ccc2oc3cc(NS(C)(=O)=O)ccc3c2c1)C(=O)O	–	Cmax [2]: 103 ng/mL; AUC [3]: 245 ng·h/mL; bioavailability [4]: 7%; Vd [5]: 1.9 L/kg; clearance [6]: 141 mL/min/kg; half-life [7]: 120 min
CC(C)[C@H](NS(=O)(=O)c1ccc2c(c1)oc1ccc(NS(=O)(=O)CC(F)(F)F)cc12)C(=O)O	6.17	–
CC(C)[C@@H](NS(=O)(=O)c1ccc2oc3cc(NC(=O)Oc4ccccc4)ccc3c2c1)C(=O)O	6.22	–
COC(=O)Nc1cc2oc3ccc(S(=O)(=O)N[C@H](C(=O)O)C(C)C)cc3c2cc1Br	< 4.60	–

More lines, main results first:

pIC50 [1]	SMILES	other results
7.03	CC(C)[C@H](NS(=O)(=O)c1ccc2c(c1)oc1ccc(NS(C)(=O)=O)cc12)C(=O)O	–
6.92	CC(C)[C@@H](NS(=O)(=O)c1ccc2oc3cc(NS(=O)(=O)C(C)C)ccc3c2c1)C(=O)O	–
6.96	CCCOC(=O)Nc1ccc2c(c1)oc1ccc(S(=O)(=O)N[C@@H](C(=O)O)C(C)C)cc12	–
6.70	CC(C)[C@H](NS(=O)(=O)c1ccc2c(c1)oc1ccc(NC(=O)Oc3ccc(F)cc3)cc12)C(=O)O	–
7.01	CC(C)[C@H](NS(=O)(=O)c1ccc2c(c1)oc1cc(NC(=O)OCCF)ccc12)C(=O)O	–
